# Target: T1, nsp10–14 fusion protein (Severe acute respiratory syndrome coronavirus 2, UniProt P0DTD1)
# T1 construct: gene rep; with Non-structural protein 10
# Test: biochemical
structure (smiles),measurement,value
O=C1C=C2C(=CCOC2O)O1 (stereo not shown) [patulin],IC50,1.8 µM
